Read-outs that look alike come from different tables or passages of the source. Starred links: 1 amine or outer side, 2 acyl side, 3 side chain; linkers in the order of their positions; H or OH if unused. Positions of bridges follow the written chain, without caps; N, C: chain ends. Non-standard residues stand in square brackets, D forms with d. Residues, ends and D or L forms follow the SMILES beside them. Hexanoyl(3S-OH,4R-NH2,5-Me) = CC(C)[C@@H](N[*:1])[C@@H](O)CC(=O)[*:2]; NMeY = CN[C@@H](Cc1ccc(O)cc1)C(=O)O; dNMeL = CN[C@H](CC(C)C)C(=O)O; Hiv = CC(C)[C@H](O)C(=O)O; Lac = C[C@H](O)C(=O)O
Assays:
Settings in all cases: for TGI: total growth inhibition; for CC50: read-out: LC50
HELA-APL = test: SRB colorimetric cell growth inhibition assay, HELA-APL
Experimental: (§1) This form of assay employs 96 well cell culture microplates of […] diameter (Faircloth, 1988; Mosmann, 1983). Most of the cell lines are obtained from American Type Culture Collection (ATCC) derived from different human cancer types.
(§2) Cells are maintained in RPMI 1640 10% FBS, supplemented with 0.1 g/l penicillin and 0.1 g/l streptomycin sulfate and then incubated at 37° C., 5% CO2 and 98% humidity. For the experiments, cells were harvested from subconfluent cultures using trypsin and resuspended in fresh medium before plating.
(§3) Cells are seeded in 96 well microtiter plates, at 5×10^3 cells per well in aliquots of 195 μl medium, and they are allowed to attach to the plate surface by growing in drug free medium for 18 hours. Afterward, samples are added in aliquots of 5 μl in a ranging from 10 to 10-8 μg/ml, dissolved in DMSO/EtOH/PBS (0.5:0.5:99). After 48 hours exposure, the antitumor effect are measured by the SRB methodology: cells are fixed by adding 50 μl of cold 50% (wt/vol) trichloroacetic acid (TCA) and incubated for 60 minutes at 4° C.
(§4) Plates are washed with deionised water and dried. One hundred μl of SRB solution (0.4% wt/vol in 1% acetic acid) is added to each microtiter well and incubated for 10 minutes at room temperature. Unbound SRB is removed by washing with 1% acetic acid. Plates are air dried and bound stain is solubilized with Tris buffer. Optical densities are read on a automated spectrophotometric plate reader at a single wavelength of 490 nm.
(§5) The values for mean+/−SD of data from triplicate wells are calculated.
(§6) Some parameters for cellular responses can be calculated: GI=growth inhibition, TGI=total growth inhibition (cytostatic effect) and LC=cell killing (cytotoxic effect).

LOVO = test: SRB colorimetric cell growth inhibition assay, LOVO
Experimental: as §1, §2, §3, §4, §5, §6

SK-MEL-28 = test: SRB colorimetric cell growth inhibition assay, SK-MEL-28
Experimental: as §1, §2, §3, §4, §5, §6

DU145 = test: SRB colorimetric cell growth inhibition assay, DU145
Experimental: as §1, §2, §3, §4, §5, §6

LN-caP = test: SRB colorimetric cell growth inhibition assay, LN-caP
Experimental: as §1, §2, §3, §4, §5, §6

PANC1 = test: SRB colorimetric cell growth inhibition assay, PANC1
Experimental: as §1, §2, §3, §4, §5, §6

IGROV = test: SRB colorimetric cell growth inhibition assay, IGROV
Experimental: as §1, §2, §3, §4, §5, §6

LOVO-DOX = test: SRB colorimetric cell growth inhibition assay, LOVO-DOX
Experimental: as §1, §2, §3, §4, §5, §6

HELA = test: SRB colorimetric cell growth inhibition assay, HELA
Experimental: as §1, §2, §3, §4, §5, §6

K562 = test: SRB colorimetric cell growth inhibition assay, K562
Experimental: as §1, §2, §3, §4, §5, §6

A549 = test: SRB colorimetric cell growth inhibition assay, A549
Experimental: as §1, §2, §3, §4, §5, §6

HT29 = test: SRB colorimetric cell growth inhibition assay, HT29
Experimental: as §1, §2, §3, §4, §5, §6

IGROV-ET = test: SRB colorimetric cell growth inhibition assay, IGROV-ET
Experimental: as §1, §2, §3, §4, §5, §6

SK-BR3 = test: SRB colorimetric cell growth inhibition assay, SK-BR3
Experimental: as §1, §2, §3, §4, §5, §6

[1] = HELA-APL cells, SRB, 48 hours exposure
[2] = LOVO cells, SRB, 48 hours exposure
[3] = SK-MEL-28 cells, SRB, 48 hours exposure
[4] = DU145 cells, SRB, 48 hours exposure
[5] = LN-caP cells, SRB, 48 hours exposure
[6] = PANC1 cells, SRB, 48 hours exposure
[7] = IGROV cells, SRB, 48 hours exposure
[8] = LOVO-DOX cells, SRB, 48 hours exposure
[9] = HELA cells, SRB, 48 hours exposure
[10] = K562 cells, SRB, 48 hours exposure
[11] = A549 cells, SRB, 48 hours exposure
[12] = HT29 cells, SRB, 48 hours exposure
[13] = IGROV-ET cells, SRB, 48 hours exposure
[14] = SK-BR3 cells, SRB, 48 hours exposure

COc1ccc(C[C@H]2C(=O)O[C@H](C)[C@H](NC(=O)[C@@H](CC(C)C)N(C)C(=O)[C@@H]3CCCN3C(=O)[C@H](C)O)C(=O)N[C@H](C(C)C)[C@@H](O)CC(=O)O[C@@H](C(C)C)C(=O)N[C@@H](CC(C)C)C(=O)N3CCC[C@H]3C(=O)N2C)cc1 [tamandarin B, Tamandarin B, reference compound] (H-[Lac]P[dNMeL]T[Hexanoyl(3S-OH,4R-NH2,5-Me)][Hiv]LP[NMeY](Me); ester 4-C)
GI50 (HELA-APL; HELA-APL (aplidine resistant) cervix cells, SRB, 48 hours exposure): 59.7 nM
TGI (HELA-APL; [1]): 1.16E−06 Molar
CC50 (HELA-APL; HELA-APL cells, cell killing, SRB, 48 hours exposure): 9.59 µM
TGI (LOVO; [2]): 1.61E−07 Molar
GI50 (LOVO; LOVO colon adenocarcinoma cells, SRB, 48 hours exposure): 30.5 nM
CC50 (LOVO; LOVO cells, cell killing, SRB, 48 hours exposure): 9.59 µM
GI50 (SK-MEL-28; SK-MEL-28 (MEL-28) melanoma cells, SRB, 48 hours exposure): 3.03 nM
TGI (SK-MEL-28; [3]): 1.19E−08 Molar
CC50 (SK-MEL-28; SK-MEL-28 cells, cell killing, SRB, 48 hours exposure): 0.119 µM
TGI (DU145; [4]): 2.41E−08 Molar
GI50 (DU145; DU145 prostate carcinoma cells, SRB, 48 hours exposure): 7.08 nM
CC50 (DU145; DU145 cells, cell killing, SRB, 48 hours exposure): 79.7 nM
TGI (LN-caP; [5]): 2.13E−08 Molar
GI50 (LN-caP; LN-caP prostate adenocarcinoma cells, SRB, 48 hours exposure): 5.84 nM
CC50 (LN-caP; LN-caP cells, cell killing, SRB, 48 hours exposure): 142 nM
TGI (PANC1; [6]): 5.69E−08 Molar
GI50 (PANC1; PANC1 pancreatic carcinoma cells, SRB, 48 hours exposure): 14 nM
CC50 (PANC1; PANC1 cells, cell killing, SRB, 48 hours exposure): 413 nM
TGI (IGROV; [7]): 2.91E−08 Molar
GI50 (IGROV; IGROV ovary adenocarcinoma cells, SRB, 48 hours exposure): 7.31 nM
CC50 (IGROV; IGROV cells, cell killing, SRB, 48 hours exposure): 133 nM
GI50 (LOVO-DOX; LOVO-DOX (MDR) colon adenocarcinoma cells, SRB, 48 hours exposure): 1250 nM
TGI (LOVO-DOX; [8]): 9.59E−06 Molar
CC50 (LOVO-DOX; LOVO-DOX cells, cell killing, SRB, 48 hours exposure): 9.59 µM
TGI (HELA; [9]): 1.76E−08 Molar
GI50 (HELA; HELA cervix carcinoma cells, SRB, 48 hours exposure): 3.9 nM
CC50 (HELA; HELA cells, cell killing, SRB, 48 hours exposure): 120 nM
GI50 (K562; [10]): 8.47 nM
TGI (K562; [10]): 2.63E−08 Molar
CC50 (K562; K562 cells, cell killing, SRB, 48 hours exposure): 78.2 nM
TGI (A549; [11]): 4.01E−08 Molar
GI50 (A549; A549 lung carcinoma cells, SRB, 48 hours exposure): 7.62 nM
CC50 (A549; A549 cells, cell killing, SRB, 48 hours exposure): 766 nM
TGI (HT29; [12]): 4.32E−08 Molar
GI50 (HT29; HT29 colon adenocarcinoma cells, SRB, 48 hours exposure): 6.32 nM
CC50 (HT29; HT29 cells, cell killing, SRB, 48 hours exposure): 9.59 µM
GI50 (IGROV-ET; IGROV-ET (ET-743 resistant) ovary cells, SRB, 48 hours exposure): 0.173 µM
TGI (IGROV-ET; [13]): 2.04E−06 Molar
CC50 (IGROV-ET; IGROV-ET cells, cell killing, SRB, 48 hours exposure): 9.59 µM
GI50 (SK-BR3; SK-BR3 breast adenocarcinoma cells, SRB, 48 hours exposure): 5.44 nM
TGI (SK-BR3; [14]): 2.49E−08 Molar
CC50 (SK-BR3; SK-BR3 cells, cell killing, SRB, 48 hours exposure): 236 nM

COc1ccc(C[C@H]2C(=O)O[C@H](C)[C@H](NC(=O)[C@@H](CC(C)C)N(C)C(=O)[C@@H]3CCCN3C(=O)[C@H](C)O)C(=O)N[C@H](C(C)C)[C@@H](O)CC(=O)O[C@@H](C(C)C)C(=O)N[C@@H](CC(C)C)C(=O)N[C@@H](C)C(=O)N2C)cc1 [Compound 75, [N-Ala^4]-Tamandarin B] (H-[Lac]P[dNMeL]T[Hexanoyl(3S-OH,4R-NH2,5-Me)][Hiv]LA[NMeY](Me); ester 4-C)
TGI (HELA-APL; [1]): 9.84E−06 Molar
GI50 (HELA-APL; Homo sapiens, 48 h): ≥ 9840 nM
CC50 (HELA-APL; Homo sapiens, 48 h): ≥ 9.84 µM
GI50 (LOVO; Homo sapiens, LoVo, 48 h): 3550 nM
CC50 (LOVO; Homo sapiens, LoVo, 48 h): ≥ 9.84 µM
TGI (LOVO; [2]): 9.84E−06 Molar
GI50 (SK-MEL-28; Homo sapiens, SK-MEL-28, 48 h): 1500 nM
CC50 (SK-MEL-28; Homo sapiens, SK-MEL-28, 48 h): 8 µM
TGI (SK-MEL-28; [3]): 3.46E−06 Molar
TGI (DU145; [4]): 4.95E−06 Molar
GI50 (DU145; Homo sapiens, DU-145, 48 h): 1810 nM
CC50 (DU145; Homo sapiens, DU-145, 48 h): ≥ 9840 nM
GI50 (LN-caP; Homo sapiens, LNCaP, 48 h): 548 nM
CC50 (LN-caP; Homo sapiens, LNCaP, 48 h): ≥ 9840 nM
TGI (LN-caP; [5]): 2.97E−06 Molar
GI50 (PANC1; Homo sapiens, PANC-1, 48 h): 3750 nM
CC50 (PANC1; Homo sapiens, PANC-1, 48 h): ≥ 9840 nM
TGI (PANC1; [6]): 9.84E−06 Molar
GI50 (IGROV; Homo sapiens, IGROV, 48 h): 1990 nM
CC50 (IGROV; Homo sapiens, IGROV, 48 h): ≥ 9840 nM
TGI (IGROV; [7]): 5.29E−06 Molar
GI50 (LOVO-DOX; Homo sapiens, 48 h): ≥ 9840 nM
CC50 (LOVO-DOX; Homo sapiens, 48 h): ≥ 9.84 µM
TGI (LOVO-DOX; [8]): 9.84E−06 Molar
TGI (HELA; [9]): 3.60E−06 Molar
GI50 (HELA; Homo sapiens, HeLa, 48 h): 1180 nM
CC50 (HELA; Homo sapiens, HeLa, 48 h): ≥ 9840 nM
GI50 (K562; Homo sapiens, K562, 48 h): 5870 nM
CC50 (K562; Homo sapiens, K562, 48 h): ≥ 9840 nM
TGI (K562; [10]): 9.46E−06 Molar
TGI (A549; [11]): 9.84E−06 Molar
GI50 (A549; Homo sapiens, A549, 48 h): 5850 nM
CC50 (A549; Homo sapiens, A549, 48 h): ≥ 9840 nM
TGI (HT29; [12]): 9.84E−06 Molar
GI50 (HT29; Homo sapiens, HT-29, 48 h): 4220 nM
CC50 (HT29; Homo sapiens, HT-29, 48 h): ≥ 9.84 µM
GI50 (IGROV-ET; Homo sapiens, 48 h): 6.86 µM
CC50 (IGROV-ET; Homo sapiens, 48 h): ≥ 9.84 µM
TGI (IGROV-ET; [13]): 9.84E−06 Molar
GI50 (SK-BR3; Homo sapiens, SK-BR-3, 48 h): 789 nM
CC50 (SK-BR3; Homo sapiens, SK-BR-3, 48 h): ≥ 9840 nM
TGI (SK-BR3; [14]): 3.39E−06 Molar

From patent US20070149446A1, “Tamandarin analogs and fragments thereof and methods of making and using” (The Trustees of the University of Pennsylvania Center for …, priority 2003, published 2007)
